Data published in EP2970215B1, “PYRROLIDINE DERIVATIVES, PHARMACEUTICAL COMPOSITIONS CONTAINING THEM, AND THEIR USE IN THERAPY” (AbbVie Deutschland GmbH & Co. KG, priority 2013, dated 2014).

The compounds below were run against T1, human GlyT1c transporter (Homo sapiens, UniProt P48067) (assay: Radioligand binding assay using recombinant CHO cell membranes expressing human GlyT1). Conditions: radioligand binding to human GlyT1c transporter-expressing membranes.
T1 construct: expressed in transfected cells; host or cells: CHO cells (recombinant; line hGlyT1c_5_CHO is named for the uptake assay)
T1 sequence (P48067 1-706): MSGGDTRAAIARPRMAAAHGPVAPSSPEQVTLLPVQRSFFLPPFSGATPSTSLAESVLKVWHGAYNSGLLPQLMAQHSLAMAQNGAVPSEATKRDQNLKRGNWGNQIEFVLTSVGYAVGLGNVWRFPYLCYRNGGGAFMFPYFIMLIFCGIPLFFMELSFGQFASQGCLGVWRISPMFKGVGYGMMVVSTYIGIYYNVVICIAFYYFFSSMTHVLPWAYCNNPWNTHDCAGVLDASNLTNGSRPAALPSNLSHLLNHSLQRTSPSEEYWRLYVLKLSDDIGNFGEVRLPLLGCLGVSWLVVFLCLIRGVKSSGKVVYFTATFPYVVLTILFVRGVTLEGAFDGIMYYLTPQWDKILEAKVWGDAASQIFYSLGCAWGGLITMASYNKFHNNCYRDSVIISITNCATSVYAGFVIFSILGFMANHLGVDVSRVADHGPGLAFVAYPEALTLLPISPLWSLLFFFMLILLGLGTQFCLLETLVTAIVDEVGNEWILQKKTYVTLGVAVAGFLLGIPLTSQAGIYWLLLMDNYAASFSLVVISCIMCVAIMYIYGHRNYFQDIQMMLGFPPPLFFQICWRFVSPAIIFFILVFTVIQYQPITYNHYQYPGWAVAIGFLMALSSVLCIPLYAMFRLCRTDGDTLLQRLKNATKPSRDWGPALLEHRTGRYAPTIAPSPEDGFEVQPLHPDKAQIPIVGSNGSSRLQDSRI
Text: 2. Radioligand binding assays using recombinant CHO cell membranes expressing human GlyT1: […]

Row | Compound | Ki
1 | Cn1cnc(S(=O)(=O)N2C[C@@H](Nc3cc(F)ccc3F)[C@H](c3ccccc3)C2)c1 (relative stereo) [Example 232, trans-N-(2,5-difluorophenyl)-1-[(1-methyl-1H-imidazol-4-yl)sulfonyl]-4-phenylpyrrolidin-3-amine] | ≤ 10 µM
2 | Cn1cnc(S(=O)(=O)N2C[C@@H](Nc3ccc(F)cc3F)[C@H](c3ccccc3)C2)c1 (relative stereo) [Example 233, trans-N-(2,4-difluorophenyl)-1-[(1-methyl-1H-imidazol-4-yl)sulfonyl]-4-phenylpyrrolidin-3-amine] | ≤ 10 µM
3 | Cn1cnc(S(=O)(=O)N2C[C@@H](Nc3ccc(F)c(F)c3F)[C@H](c3ccccc3)C2)c1 (relative stereo) [Example 234, trans-1-[(1-methyl-1H-imidazol-4-yl)sulfonyl]-4-phenyl-N-(2,3,4-trifluorophenyl)pyrrolidin-3-amine] | ≤ 1 µM
4 | Cn1cnc(S(=O)(=O)N2C[C@@H](Nc3cccc(F)n3)[C@H](c3ccccc3)C2)c1 (relative stereo) [Example 235, 6-fluoro-N-{trans-1-[(1-methyl-1H-imidazol-4-yl)sulfonyl]-4-phenylpyrrolidin-3-yl}pyridin-2-amine] | ≤ 10 µM
5 | Cn1cnc(S(=O)(=O)N2C[C@@H](Nc3ccnc(F)c3)[C@H](c3ccccc3)C2)c1 (relative stereo) [Example 236, 2-fluoro-N-{trans-1-[(1-methyl-1H-imidazol-4-yl)sulfonyl]-4-phenylpyrrolidin-3-yl}pyridin-4-amine] | ≤ 10 µM
6 | Cn1cnc(S(=O)(=O)N2C[C@@H](Nc3cncc(F)c3)[C@H](c3ccccc3)C2)c1 (relative stereo) [Example 237, 5-fluoro-N-{trans-1-[(1-methyl-1H-imidazol-4-yl)sulfonyl]-4-phenylpyrrolidin-3-yl}pyridin-3-amine] | ≤ 10 µM
7 | Cn1cnc(S(=O)(=O)N2C[C@@H](Nc3ccnc(F)c3)[C@H](c3ccc(F)cc3)C2)c1 (relative stereo) [Example 239, 2-fluoro-N-{trans-4-(4-fluorophenyl)-1-[(1-methyl-1H-imidazol-4-yl)sulfonyl]pyrrolidin-3-yl} pyridin-4-amine] | ≤ 10 µM
8 | Cn1cnc(S(=O)(=O)N2C[C@@H](Nc3cc(C(F)(F)F)ncn3)[C@H](c3ccccc3)C2)c1 (relative stereo) [Example 240, N-{trans-1-[(1-methyl-1H-imidazol-4-yl)sulfonyl]-4-phenylpyrrolidin-3-yl} -6-(trifluoromethyl)pyrimidin-4-amine] | ≤ 0.1 µM
9 | Cn1cnc(S(=O)(=O)N2C[C@@H](Nc3ccc4ccncc4c3)[C@H](c3ccccc3)C2)c1 (relative stereo) [Example 241, N-{trans-1-[(1-methyl-1H-imidazol-4-yl)sulfonyl]-4-phenylpyrrolidin-3-yl}isoquinolin-7-amine] | ≤ 10 µM
10 | Cn1cnc(S(=O)(=O)N2C[C@@H](C(=O)Nc3ccccc3)[C@H](c3ccc(F)cc3)C2)c1 (relative stereo) [Example 242, trans-4-(4-fluorophenyl)-1-[(1-methyl-1H-imidazol-4-yl)sulfonyl]-N-phenylpyrrolidine-3-carboxamide] | ≤ 10 µM
11 | Cn1cnc(S(=O)(=O)N2C[C@@H](C(=O)Nc3ccc(C(F)(F)F)cc3)[C@H](c3ccc(F)cc3)C2)c1 (relative stereo) [Example 243, Trans-4-(4-fluorophenyl)-1-[(1-methyl-1H-imidazol-4-yl)sulfonyl]-N-[4-(trifluoromethyl)phenyl]pyrrolidine-3-carboxamide] | ≤ 1 µM
12 | Cn1cnc(S(=O)(=O)N2C[C@@H](C(=O)Nc3cc(Cl)cc(Cl)c3)[C@H](c3ccc(F)cc3)C2)c1 (relative stereo) [Example 244, Trans-N-(3,5-dichlorophenyl)-4-(4-fluorophenyl)-1-[(1-methyl-1H-imidazol-4-yl)sulfonyl]pyrrolidine-3-carboxamide] | ≤ 1 µM
13 | Cn1cnc(S(=O)(=O)N2C[C@@H](COc3ccccc3)[C@H](c3ccc(F)cc3)C2)c1 (relative stereo) [Example 245, 4-{[trans-3-(4-fluorophenyl)-4-(phenoxymethyl)pyrrolidin-1-yl]sulfonyl}-1-methyl-1H-imidazole] | ≤ 0.1 µM
14 | Cn1cnc(S(=O)(=O)N2C[C@@H](COc3ccc(Cl)cc3Cl)[C@H](c3ccc(F)cc3)C2)c1 (relative stereo) [Example 246, 4-{[trans-3-[(2,4-dichlorophenoxy)methyl]-4-(4-fluorophenyl)pyrrolidin-1-yl]sulfonyl}-1-methyl-1H-imidazole] | ≤ 0.1 µM
15 | Cn1cnc(S(=O)(=O)N2C[C@@H](COc3cccc(Cl)c3)[C@H](c3ccc(F)cc3)C2)c1 (relative stereo) [Example 248, 4-{[trans-3-[(3-chlorophenoxy)methyl]-4-(4-fluorophenyl)pyrrolidin-1-yl]sulfonyl}-1-methyl-1H-imidazole] | ≤ 1 µM
16 | Cn1cnc(S(=O)(=O)N2C[C@@H](COc3ccc(Cl)c(C(F)(F)F)c3)[C@H](c3ccc(F)cc3)C2)c1 (relative stereo) [Example 249, 4-{[trans-3-{[4-chloro-3-(trifluoromethyl)phenoxy]methyl}-4-(4-fluorophenyl)pyrrolidin-1-yl]sulfonyl}-1-methyl-1H-imidazole] | ≤ 1 µM
17 | Cn1cnc(S(=O)(=O)N2C[C@@H](COc3cccc(C(F)(F)F)c3Cl)[C@H](c3ccc(F)cc3)C2)c1 (relative stereo) [Example 250, 4-{[trans-3-{[2-chloro-3-(trifluoromethyl)phenoxy]methyl}-4-(4-fluorophenyl)pyrrolidin-1-yl]sulfonyl}-1-methyl-1H-imidazole] | ≤ 10 µM
18 | Cn1cnc(S(=O)(=O)N2C[C@@H](COc3cccc(F)c3)[C@H](c3ccc(F)cc3)C2)c1 (relative stereo) [Example 251, 4-{[trans-3-[(3-fluorophenoxy)methyl]-4-(4-fluorophenyl)pyrrolidin-1-yl]sulfonyl}-1-methyl-1H-imidazole] | ≤ 0.1 µM
19 | Cn1cnc(S(=O)(=O)N2C[C@@H](Nc3cccc(F)c3)[C@H](c3ccccc3Cl)C2)c1 (relative stereo) [Example 252, trans-4-(2-chlorophenyl)-N-(3-fluorophenyl)-1-[(1-methyl-1H-imidazol-4-yl)sulfonyl]pyrrolidin-3-amine] | ≤ 1 µM
20 | Cn1cnc(S(=O)(=O)N2C[C@@H](Nc3ccc(F)cc3)[C@H](c3ccccc3Cl)C2)c1 (relative stereo) [Example 253, trans-4-(2-chlorophenyl)-N-(4-fluorophenyl)-1-[(1-methyl-1H-imidazol-4-yl)sulfonyl]pyrrolidin-3-amine] | ≤ 1 µM
21 | Cn1cnc(S(=O)(=O)N2C[C@@H](Nc3ccc(Cl)cc3)[C@H](c3ccccc3Cl)C2)c1 (relative stereo) [Example 254, trans-4-(2-chlorophenyl)-N-(4-chlorophenyl)-1-[(1-methyl-1H-imidazol-4-yl)sulfonyl]pyrrolidin-3-amine] | ≤ 10 µM
22 | Cn1cnc(S(=O)(=O)N2C[C@@H](Nc3cccc(C(F)(F)F)c3)[C@H](c3ccccc3Cl)C2)c1 (relative stereo) [Example 255, trans-4-(2-chlorophenyl)-1-[(1-methyl-1H-imidazol-4-yl)sulfonyl]-N-[3-(trifluoromethyl)phenyl]pyrrolidin-3-amine] | ≤ 0.1 µM
23 | Cn1cnc(S(=O)(=O)N2C[C@@H](Nc3ccc(C(F)(F)F)cc3)[C@H](c3ccccc3Cl)C2)c1 (relative stereo) [Example 256, trans-4-(2-chlorophenyl)-1-[(1-methyl-1H-imidazol-4-yl)sulfonyl]-N-[4-(trifluoromethyl)phenyl]pyrrolidin-3-amine] | ≤ 1 µM
24 | Cn1cnc(S(=O)(=O)N2C[C@@H](Nc3ccc(F)c(Cl)c3)[C@H](c3ccccc3Cl)C2)c1 (relative stereo) [Example 257, trans-N-(3-chloro-4-fluorophenyl)-4-(2-chlorophenyl)-1-[(1-methyl-1H-imidazol-4-yl)sulfonyl]pyrrolidin-3-amine] | ≤ 0.1 µM
25 | Cn1cnc(S(=O)(=O)N2C[C@@H](Nc3ccc(F)c(C(F)(F)F)c3)[C@H](c3ccccc3Cl)C2)c1 (relative stereo) [Example 258, trans-4-(2-chlorophenyl)-N-[4-fluoro-3-(trifluoromethyl)phenyl]-1-[(1-methyl-1H-imidazol-4-yl)sulfonyl]pyrrolidin-3-amine] | ≤ 1 µM
26 | Cn1cnc(S(=O)(=O)N2C[C@@H](Nc3ccnc(C(F)(F)F)c3)[C@H](c3ccccc3Cl)C2)c1 (relative stereo) [Example 259, N-{trans-4-(2-chlorophenyl)-1-[(1-methyl-1H-imidazol-4-yl)sulfonyl]pyrrolidin-3-yl}-2-(trifluoromethyl)pyridin-4-amine] | ≤ 1 µM
27 | Cn1cnc(S(=O)(=O)N2C[C@@H](NCc3ccccc3Cl)[C@H](c3ccc(F)cc3)C2)c1 (relative stereo) [Example 260, trans-N-(2-chlorobenzyl)-4-(4-fluorophenyl)-1-[(1-methyl-1H-imidazol-4-yl)sulfonyl]pyrrolidin-3-amine] | ≤ 0.1 µM
